Kd, MIC and Protective dose data for 13 compounds are collected here from ChEMBL document CHEMBL1147602, “DNA binding ligands targeting drug-resistant Gram-positive bacteria. Part 1: Internal benzimidazole derivatives” (Bioorg Med Chem Lett, 2004).

Each structure is given as a SMILES string. ≈ marks a conversion by molar mass, not a printed value. Where “and” joins values, the source holds several entries; their conditions need not be identical. Equal entries are not always repeated. Calls of active or inactive are those of the source. The rule behind the calls is not given here. Bounds are passed on as bounds.

The target of one assay is Nucleic Acid. The assay is described as follows: Dissociation constant for the DNA binding was determined by quantitative DNase I footprint titration. In kind it is nucleic-acid assay.
Assay [1] deals with Enterococcus faecalis. Description: Antibacterial activity against vancomycin-resistant Enterococcus faecalis ATCC 51559 strain; NA means not analyzed. In kind it is functional, organism-based.
In the next assay the test system is Escherichia coli. The assay is described as follows: Antibacterial activity against Escherichia coli ATCC 25922 strain. Type of assay: functional.
Assay [2] has as its system Streptococcus pneumoniae. Description: Antibacterial activity against penicillin-sensitive Streptococcus pneumoniae ATCC 49619 strain. Type of assay: functional.
Assay [3] has as its system Staphylococcus aureus. The assay is described as follows: Antibacterial activity against methicillin-resistant Staphylococcus aureus ATCC 27660 strain. Type of assay: functional.
For assay [4], the system named is Staphylococcus aureus. The assay is described as follows: Antibacterial activity against methicillin-sensitive Staphylococcus aureus ATCC 13709 strain. Type of assay: functional.
The test system of assay [5] is Streptococcus pneumoniae. Description: Antibacterial activity against penicillin-resistant Streptococcus pneumoniae ATCC 51422 strain; NA means not analyzed. In kind it is functional, organism-based.
Assay [6] deals with Enterococcus faecalis. The assay is described as follows: Antibacterial activity against vancomycin-sensitive Enterococcus faecalis ATCC 29212 strain. In kind it is functional.
The test system of assay [7] is Enterococcus faecalis. The assay is described as follows: Antibacterial activity against vancomycin-resistant Enterococcus faecalis ATCC 51559 strain. In kind it is functional.
The subject of assay [8] is Streptococcus pneumoniae. The assay is described as follows: Antibacterial activity against penicillin-resistant Streptococcus pneumoniae ATCC 51422 strain. In kind it is functional.
The subject of the next assay is Moraxella catarrhalis. The assay is described as follows: Antibacterial activity against Moraxella catarrhalis ATCC 25238 strain. In kind it is functional.
A further assay concerns Pseudomonas aeruginosa. The assay is described as follows: Antibacterial activity against Pseudomonas aeruginosa (ATCC 27853) strain; inactive. In kind it is functional.
The subject of a further assay is Haemophilus influenzae. The assay is described as follows: Antibacterial activity against Haemophilus influenzae ATCC 78025 strain. In kind it is functional.
For the next assay, the system named is Mus musculus. The assay is described as follows: In vivo protective dose for efficacy against a lethal infection of methicillin-resistant Staphylococcus aureus in a mouse peritoneal sepsis model administered intravenously. Type of assay: functional.
Assay [9] deals with Staphylococcus aureus. Description: Antibacterial activity against methicillin-susceptible Staphylococcus aureus ATCC 13709 strain. In kind it is functional.
For assay [10], the system named is Enterococcus faecalis. The assay is described as follows: Antibacterial activity against vancomycin-susceptible Enterococcus faecalis ATCC 29212 strain. In kind it is functional.
Assay [11] concerns Staphylococcus aureus. The assay is described as follows: Antibacterial activity against methicillin-susceptible Staphylococcus aureus ATCC 13709 strain; (Range is 1-2 ug/mL). Type of assay: functional.

In general, Kd refers to the constant that tells how readily two partners part at equilibrium. For the compound `Cn1cc(NC(=O)c2sccc2Cl)cc1-c1nc2cc(C(=O)NCCN3CCOCC3)ccc2[nH]1`, the Kd on Nucleic Acid was ~500 nM. Moreover, the MIC entry with Enterococcus faecalis [1] and in the assay on Streptococcus pneumoniae [5] was “inactive” throughout. The MIC in the assay with Escherichia coli is > 32 µg/mL; in the assay with Streptococcus pneumoniae [2], 4 µg/mL (≈ 7.8 µM); with Staphylococcus aureus [3] it was 8 µg/mL (≈ 15.6 µM); in the assay with Staphylococcus aureus [4] it was 8 µg/mL (≈ 15.6 µM); with Enterococcus faecalis [6], 4 µg/mL (≈ 7.8 µM).

For the compound `Cn1cc(NC(=O)c2sc3ccccc3c2Cl)cc1C(=O)Nc1cc(-c2nc3cc(C(=O)NCCN4CCOCC4)ccc3[nH]2)n(C)c1`, the MIC in the assay on Enterococcus faecalis [7] is 0.25 µg/mL (≈ 0.365 µM); against Escherichia coli, > 32 µg/mL; with Streptococcus pneumoniae [8] it was 0.13 µg/mL (≈ 0.19 µM); in the assay on Streptococcus pneumoniae [2] it was 0.13 µg/mL (≈ 0.19 µM); with Staphylococcus aureus [3] it was 0.5 µg/mL (≈ 0.73 µM); against Staphylococcus aureus [4], 0.13 µg/mL (≈ 0.19 µM). Further, the MIC with Enterococcus faecalis [6] came to 0.25 µg/mL (≈ 0.365 µM).

Regarding `Cn1cc(NC(=O)c2sccc2Cl)cc1C(=O)Nc1cc(-c2nc3cc(C(=O)NCCN4CCCCC4)ccc3[nH]2)n(C)c1`, the MIC in the assay on Enterococcus faecalis [7] was 0.5 µg/mL (≈ 0.79 µM); with Escherichia coli, > 32 µg/mL; in the assay with Streptococcus pneumoniae [8], 0.13 µg/mL (≈ 0.205 µM); in the assay with Streptococcus pneumoniae [2], 0.25 µg/mL (≈ 0.395 µM); in the assay on Staphylococcus aureus [3], 0.5 µg/mL (≈ 0.79 µM); against Staphylococcus aureus [4], 2 µg/mL (≈ 3.16 µM). In the assay on Enterococcus faecalis [6], this compound showed an MIC of 0.5 µg/mL (≈ 0.79 µM).

With `Cn1cc(NC(=O)c2cc3cc4c(cc3s2)OCO4)cc1-c1nc2cc(C(=O)NCCN3CCOCC3)ccc2[nH]1`, the MIC against Enterococcus faecalis [7] was 0.03 µg/mL (≈ 0.0524 µM); against Escherichia coli, 0.5 µg/mL (≈ 0.873 µM); in the assay on Moraxella catarrhalis it was 0.031 µg/mL (≈ 0.0541 µM); against Pseudomonas aeruginosa it was 32 µg/mL (≈ 55.9 µM); with Streptococcus pneumoniae [8], 0.06 µg/mL (≈ 0.105 µM); in the assay on Streptococcus pneumoniae [2] it was 0.06 µg/mL (≈ 0.105 µM). Moreover, the MIC was found to be 0.03 µg/mL (≈ 0.0524 µM) in the assay on Staphylococcus aureus [3], 0.03 µg/mL (≈ 0.0524 µM) in the assay with Staphylococcus aureus [4], 0.06 µg/mL (≈ 0.105 µM) in the assay on Haemophilus influenzae and 0.03 µg/mL (≈ 0.0524 µM) against Enterococcus faecalis [6].

As to `Cn1cc(NC(=O)c2sccc2Cl)cc1C(=O)Nc1cc(-c2nc3cc(C(=O)NCCN4CCSCC4)ccc3[nH]2)n(C)c1`, the MIC in the assay on Enterococcus faecalis [7] is 0.13 µg/mL (≈ 0.2 µM); against Escherichia coli it was > 32 µg/mL; against Streptococcus pneumoniae [8], 0.06 µg/mL (≈ 0.0921 µM); in the assay on Streptococcus pneumoniae [2], 0.13 µg/mL (≈ 0.2 µM); against Staphylococcus aureus [3] it was 0.5 µg/mL (≈ 0.768 µM); with Staphylococcus aureus [4] it was 1 µg/mL (≈ 1.54 µM). Moreover, in the assay on Enterococcus faecalis [6], the MIC worked out at 0.13 µg/mL (≈ 0.2 µM).

As for `Cn1cc(NC(=O)c2ccc(Cl)cc2F)cc1C(=O)Nc1cc(-c2nc3cc(C(=O)NCCN4CCOCC4)ccc3[nH]2)n(C)c1`, the MIC in the assay on Enterococcus faecalis [7] worked out at 0.13 µg/mL (≈ 0.201 µM); against Escherichia coli, 8 µg/mL (≈ 12.4 µM); in the assay on Streptococcus pneumoniae [8] it was 0.13 µg/mL (≈ 0.201 µM); against Streptococcus pneumoniae [2], 0.03 µg/mL (≈ 0.0464 µM); against Staphylococcus aureus [3], 0.13 µg/mL (≈ 0.201 µM); in the assay on Staphylococcus aureus [4] it was 0.25 µg/mL (≈ 0.386 µM). This compound gave an MIC in the assay with Enterococcus faecalis [6] of 0.03 µg/mL (≈ 0.0464 µM).

Turning to `Cn1cc(NC(=O)c2sccc2Cl)cc1C(=O)Nc1cc(-c2nc3cc(C(=O)NCCN4CCOCC4)ccc3[nH]2)n(C)c1`, the Kd on Nucleic Acid is < 0.1 nM. Besides, the MIC is 0.13 µg/mL (≈ 0.205 µM) against Enterococcus faecalis [7]; 4 µg/mL (≈ 6.3 µM) against Escherichia coli; 0.03 µg/mL (≈ 0.0472 µM) in the assay with Streptococcus pneumoniae [8]; 0.25 µg/mL (≈ 0.394 µM) against Streptococcus pneumoniae [2]; 0.25 µg/mL (≈ 0.394 µM) against Staphylococcus aureus [3]; 0.25 µg/mL (≈ 0.394 µM) against Staphylococcus aureus [9]. For the same compound, the MIC against Enterococcus faecalis [10] was 0.25 µg/mL (≈ 0.394 µM). Further, the Protective dose in the assay with Mus musculus was 50 mg/kg and 20 mg/kg.

With `Cn1cc(NC(=O)c2ccc(Cl)cc2F)cc1-c1nc2cc(C(=O)NCCN3CCOCC3)ccc2[nH]1`, the MIC against Enterococcus faecalis [7] was 0.06 µg/mL (≈ 0.114 µM); with Escherichia coli, > 32 µg/mL; in the assay with Streptococcus pneumoniae [8], 0.03 µg/mL (≈ 0.0571 µM); with Streptococcus pneumoniae [2], 0.03 µg/mL (≈ 0.0571 µM); against Staphylococcus aureus [3], 0.25 µg/mL (≈ 0.476 µM); with Staphylococcus aureus [4], 0.13 µg/mL (≈ 0.248 µM). In addition, the MIC in the assay on Enterococcus faecalis [6] came to 0.03 µg/mL (≈ 0.0571 µM).

As to `Cn1cc(NC(=O)c2sc3ccccc3c2Cl)cc1-c1nc2cc(C(=O)NCCN3CCOCC3)ccc2[nH]1`, the MIC against Enterococcus faecalis [7] was 0.25 µg/mL (≈ 0.444 µM); in the assay with Escherichia coli, > 32 µg/mL; against Streptococcus pneumoniae [8], 0.25 µg/mL (≈ 0.444 µM); against Streptococcus pneumoniae [2] it was 0.13 µg/mL (≈ 0.231 µM); against Staphylococcus aureus [3], 0.13 µg/mL (≈ 0.231 µM); in the assay on Staphylococcus aureus [4], 0.25 µg/mL (≈ 0.444 µM). In the assay on Enterococcus faecalis [6], this compound yielded an MIC of 0.5 µg/mL (≈ 0.888 µM).

Take `Cn1cc(NC(=O)c2ccc(F)cc2F)cc1C(=O)Nc1cc(-c2nc3cc(C(=O)NCCN4CCOCC4)ccc3[nH]2)n(C)c1`: the MIC was found to be 0.25 µg/mL (≈ 0.396 µM) in the assay on Enterococcus faecalis [7]; 4 µg/mL (≈ 6.34 µM) in the assay on Escherichia coli; 0.06 µg/mL (≈ 0.0951 µM) in the assay with Streptococcus pneumoniae [8]; 0.06 µg/mL (≈ 0.0951 µM) in the assay on Streptococcus pneumoniae [2]; 0.13 µg/mL (≈ 0.206 µM) against Staphylococcus aureus [3]; 0.25 µg/mL (≈ 0.396 µM) in the assay on Staphylococcus aureus [4]. Besides, in the assay on Enterococcus faecalis [6], the MIC amounted to 0.06 µg/mL (≈ 0.0951 µM).

Consider `Cn1cc(NC(=O)c2ccc3[nH]c(-c4cc(NC(=O)c5sccc5Cl)cn4C)nc3c2)cc1C(=O)NCCN1CCOCC1`, for which the MIC was > 32 µg/mL in the assay on Escherichia coli, 0.25 µg/mL (≈ 0.394 µM) against Streptococcus pneumoniae [2], 0.13 µg/mL (≈ 0.205 µM) with Staphylococcus aureus [9] and 0.25 µg/mL (≈ 0.394 µM) against Enterococcus faecalis [10].

With `Cn1cc(NC(=O)c2cc3ccccc3cn2)cc1-c1nc2cc(C(=O)NCCN3CCOCC3)ccc2[nH]1`, at Nucleic Acid, the dissociation constant Kd was ~10 nM. Besides, the MIC in the assay with Enterococcus faecalis [7] is 1 µg/mL (≈ 1.91 µM); against Escherichia coli, > 32 µg/mL; against Streptococcus pneumoniae [8] it was 0.5 µg/mL (≈ 0.955 µM); against Streptococcus pneumoniae [2] it was 0.25 µg/mL (≈ 0.477 µM); against Staphylococcus aureus [3] it was 0.5 µg/mL (≈ 0.955 µM); in the assay on Staphylococcus aureus [4], 0.5 µg/mL (≈ 0.955 µM). The compound also yielded an MIC against Enterococcus faecalis [6] of 0.5 µg/mL (≈ 0.955 µM).

`Cn1cc(NC(=O)c2cc(NC(=O)c3cc(NC(=O)c4sccc4Cl)cn3C)cn2C)cc1C(=O)NCCN1CCOCC1`: the MIC against Escherichia coli was > 32 µg/mL; with Streptococcus pneumoniae [2] it was 0.13 µg/mL (≈ 0.203 µM); in the assay on Staphylococcus aureus [11], 2 µg/mL (≈ 3.12 µM); with Enterococcus faecalis [10] it was 1 µg/mL (≈ 1.56 µM).
